We go through one compound from ChEMBL document CHEMBL4422615, “Novel non-xanthine antagonist of the A2B adenosine receptor: From HTS hit to lead structure” (Eur J Med Chem, 2019).

The source made the active and inactive calls. The calls are words filed in the database; no cut-off is given here.

Data set [1] can be described thus: Clearance in rat blood at 0.3 mg/kg, iv administered as bolus dose by HPLC-MS/MS analysis. Type of data set: ADME, organism-based.
Data set [2] is described as follows: Blood clearance in mouse by measuring intrinsic clearance in mouse liver microsomes by MS/MS analysis. Type of data set: ADME. In general terms: Liver microsomes are vesicles of endoplasmic reticulum, rich in cytochrome P450 enzymes.
The target in data set [3] is T1, Adenosine receptor A1 (Homo sapiens, UniProt P30542).
T1 sequence (P30542 whole entry): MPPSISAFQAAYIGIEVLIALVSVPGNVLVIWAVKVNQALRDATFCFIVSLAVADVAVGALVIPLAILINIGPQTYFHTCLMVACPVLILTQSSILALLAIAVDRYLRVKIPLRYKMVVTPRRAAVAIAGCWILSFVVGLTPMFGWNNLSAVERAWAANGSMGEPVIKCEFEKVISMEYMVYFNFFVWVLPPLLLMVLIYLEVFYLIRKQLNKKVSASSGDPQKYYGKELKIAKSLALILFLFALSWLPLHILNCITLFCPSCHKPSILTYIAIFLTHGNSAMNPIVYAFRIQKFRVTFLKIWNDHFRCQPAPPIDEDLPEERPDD
As to the kind of experiment: Displacement of [3H]DPCPX from human A1 adenosine receptor expressed in CHO cell membranes after 60 mins by radioligand displacement assay.

For data set [4], the system named is Mus musculus. As to the kind of experiment: Antifibrotic activity in FITC-induced C57BL/6J mouse pulmonary fibrosis model assessed as reduction in lung weight at 100 to 500 mg/kg, bid administered via gavage pretreated for 45 mins before FITC addition until 72 hrs after FITC application. Type of data set: functional, organism-based.
Another data set deals with T2, Adenosine receptor A3 (Homo sapiens, UniProt P0DMS8).
T2 sequence (P0DMS8 whole entry): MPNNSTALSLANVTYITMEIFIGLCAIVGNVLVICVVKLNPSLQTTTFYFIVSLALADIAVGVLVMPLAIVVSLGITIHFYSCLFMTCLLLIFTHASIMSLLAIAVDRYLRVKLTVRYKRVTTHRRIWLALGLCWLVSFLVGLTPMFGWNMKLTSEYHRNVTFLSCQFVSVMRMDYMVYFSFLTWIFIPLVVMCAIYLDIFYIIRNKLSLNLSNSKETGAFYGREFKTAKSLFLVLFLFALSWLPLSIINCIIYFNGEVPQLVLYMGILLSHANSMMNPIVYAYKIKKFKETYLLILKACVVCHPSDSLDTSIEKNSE
Kind of data set: Displacement of [125I]AB-MECA from human A3 adenosine receptor expressed in HEK293 cell membranes after 120 mins by radioligand displacement assay. For orientation: Displacement assays read how much labelled ligand stays bound in the presence of the test substance.

Data set [5] has as its target T3, Cytochrome P450 3A4 (Homo sapiens, UniProt P08684). Kind of data set: Inhibition of CYP3A4 in human liver microsomes using midazolam as substrate preincubated for 30 mins followed by substrate addition measured after 10 mins in presence of NADPH by LC-MS/MS analysis. Format: ADME.
A short description of data set [6]: Clearance in rat plasma at 0.3 mg/kg, iv administered as bolus dose by HPLC-MS/MS analysis. Type of data set: ADME, organism-based.
A short description of data set [7]: Toxicity in FITC-induced C57BL/6J mouse pulmonary fibrosis model assessed as change in body weight administered as bid dose via gavage pretreated for 45 mins before FITC addition until 72 hrs after FITC application. Particulars: in vivo, po.
The nature of data set [8]: Clearance in dog plasma at 0.3 mg/kg, iv administered as bolus dose by HPLC-MS/MS analysis. Type of data set: ADME, organism-based, Canis lupus familiaris.
In the next data set the target is T4, Adenosine receptor A2b (Rattus norvegicus, UniProt P29276).
T4 sequence (P29276 whole entry): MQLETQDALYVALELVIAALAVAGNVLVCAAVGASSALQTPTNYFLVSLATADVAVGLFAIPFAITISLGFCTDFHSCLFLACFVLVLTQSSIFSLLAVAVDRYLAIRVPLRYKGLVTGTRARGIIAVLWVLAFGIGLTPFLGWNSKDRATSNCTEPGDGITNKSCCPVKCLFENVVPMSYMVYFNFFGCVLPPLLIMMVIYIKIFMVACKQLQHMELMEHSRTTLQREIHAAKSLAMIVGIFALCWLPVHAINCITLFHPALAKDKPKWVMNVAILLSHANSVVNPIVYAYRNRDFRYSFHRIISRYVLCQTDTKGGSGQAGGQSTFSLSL
As to the kind of experiment: Antagonist activity at recombinant rat A2B adenosine receptor expressed in CHO cells after 3 to 4 hrs by luciferase reporter gene assay. Format: cell-based. For orientation: A reporter such as luciferase makes a cellular process visible.

Data set [9] in a line: Half life in dog at 1 mg/kg, po for 15 mins by HPLC-MS/MS analysis. The conditions noted are these: in vivo. Type of data set: ADME, organism-based, Canis lupus familiaris.
Data set [10] concerns Mus musculus. As to the kind of experiment: Antifibrotic activity in FITC-induced C57BL/6J mouse pulmonary fibrosis model assessed as reduction in osteopontin level in BALF at 100 to 500 mg/kg, bid administered via gavage pretreated for 45 mins before FITC addition until 72 hrs after FITC application by ELISA. Format: functional, organism-based.
Data set [11] is described as follows: Oral bioavailability in mouse at 1 mg/kg administered as bolus dose by HPLC-MS/MS analysis. Type of data set: ADME, organism-based. The conditions noted are these: in vivo.
Data set [12] concerns the target T1, Adenosine receptor A1. As to the kind of experiment: Antagonist activity at recombinant human A1 adenosine receptor expressed in CHO cells after 3 to 4 hrs by luciferase reporter gene assay. Format: cell-based.
Data set [13] is described as follows: Blood clearance in rat by measuring Intrinsic clearance in rat hepatocytes by MS/MS analysis. Format: ADME, cell-based.
Data set [14] in a line: Oral bioavailability in dog at 1 mg/kg for 15 mins by HPLC-MS/MS analysis. Type of data set: ADME, organism-based, Canis lupus familiaris. The conditions noted are these: in vivo.
Data set [15] is described as follows: Dose normalized AUC in dog at 0.3 mg/kg, iv administered as infusion for 15 mins by HPLC-MS/MS analysis. Format: ADME, organism-based, Canis lupus familiaris. Particulars: in vivo, 0.25 h.
Data set [16] concerns the target T3, Cytochrome P450 3A4. As to the kind of experiment: Time dependent inhibition of human liver microsomes CYP3A4 using midazolam as substrate in presence of NADPH by LC-MS/MS analysis. Format: ADME.
The nature of data set [17]: Blood clearance in human by measuring intrinsic clearance in human liver microsomes by MS/MS analysis. Type of data set: ADME.
Another data set concerns the target T5, Cytochrome P450 2C8 (Homo sapiens, UniProt P10632).
T5 sequence (P10632 whole entry): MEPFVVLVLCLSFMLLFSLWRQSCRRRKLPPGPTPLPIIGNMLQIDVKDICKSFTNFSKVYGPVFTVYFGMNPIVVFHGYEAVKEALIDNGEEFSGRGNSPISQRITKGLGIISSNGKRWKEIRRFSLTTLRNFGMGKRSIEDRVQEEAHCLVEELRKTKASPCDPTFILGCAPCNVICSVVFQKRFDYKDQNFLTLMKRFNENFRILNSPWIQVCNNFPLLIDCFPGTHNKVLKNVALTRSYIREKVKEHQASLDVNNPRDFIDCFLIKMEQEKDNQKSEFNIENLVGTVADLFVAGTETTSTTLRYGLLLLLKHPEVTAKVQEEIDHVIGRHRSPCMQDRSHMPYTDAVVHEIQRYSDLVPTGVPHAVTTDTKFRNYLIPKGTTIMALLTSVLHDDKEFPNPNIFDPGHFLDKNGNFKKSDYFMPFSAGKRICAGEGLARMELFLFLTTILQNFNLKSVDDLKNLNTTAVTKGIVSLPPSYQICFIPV
Kind of data set: Inhibition of CYP2C8 in human liver microsomes using amodiaquine as substrate after 15 mins in presence of NADPH by LC-MS/MS analysis. Type of data set: ADME.

T3 sequence (P08684 whole entry): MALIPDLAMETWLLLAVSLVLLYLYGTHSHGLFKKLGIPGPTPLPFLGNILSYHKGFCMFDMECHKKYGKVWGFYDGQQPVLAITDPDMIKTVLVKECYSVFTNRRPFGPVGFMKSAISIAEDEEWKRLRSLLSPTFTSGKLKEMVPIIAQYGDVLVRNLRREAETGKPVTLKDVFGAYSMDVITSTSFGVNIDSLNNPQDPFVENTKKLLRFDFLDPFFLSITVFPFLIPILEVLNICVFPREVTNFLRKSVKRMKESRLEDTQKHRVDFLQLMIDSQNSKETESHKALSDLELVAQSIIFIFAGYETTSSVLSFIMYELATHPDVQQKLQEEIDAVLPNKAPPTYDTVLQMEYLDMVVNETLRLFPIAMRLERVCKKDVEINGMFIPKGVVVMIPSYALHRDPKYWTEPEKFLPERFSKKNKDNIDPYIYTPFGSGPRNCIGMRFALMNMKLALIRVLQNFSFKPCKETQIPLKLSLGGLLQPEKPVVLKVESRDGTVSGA

`CCn1c(=O)c2c(C)c(C(=O)N3CCC(O)CC3)sc2n(CCC(F)(F)F)c1=O`: the clearance is 23.3 mL/min/kg in [1], 18.3 mL/min/kg in [6] and 6.67 mL/min/kg in data set [8]. In addition, the figures for the CLhep predicted in data set [2], in data set [13] and in data set [17] were less than 8.33 mL/min/kg, 23.3 mL/min/kg and 3.67 mL/min/kg, respectively. For the same compound, the Ki at Adenosine receptor A1 [3] was more than 1000 nM; on Adenosine receptor A3, more than 10000 nM. Further, the result in the data set on Mus musculus [4] and in the data set on Mus musculus [10] was Active. Moreover, the IC50 was more than 20000 nM on Cytochrome P450 3A4 [5], 280 nM at Adenosine receptor A2b, 1300 nM on Adenosine receptor A1 [12] and more than 20000 nM on Cytochrome P450 2C8. For the same compound, in [7], the Activity entry was “Non-Toxic”. The compound further had a half-life in data set [9] of 5.1 h. For the same compound, the results for the bioavailability in data set [11] and in [14] were 65% and 79%, respectively. Moreover, the AUC/dose in data set [15] was 2.5 kg·h/L. Moreover, the TDI result at Cytochrome P450 3A4 [16] was “Not Active”.

As usually defined, the clearance is a measure of how efficiently the substance is removed, as volume per time. Usually Ki stands for the dissociation constant of the complex between target and ligand, obtained from inhibition or displacement. A low value points to higher affinity. For orientation: IC50 means the concentration at which inhibition is half-maximal. By half-life is commonly meant how long it takes for the measured level to halve. High values mean slow decline, low ones rapid decline. Broadly, the bioavailability is dose-corrected exposure relative to a reference, in per cent.
